Results as given in publication PMC13576449, “Small-Molecule Activators of PRMT1: Discovery, SAR Analyses, and Proapoptotic Effects in Pancreatic Cancer Cells” (Journal of Medicinal Chemistry, 2026).

How the values were obtained:
Type in all cases: biochemical
FLAG-tagged PRMT1 = biological target: T1, FLAG-tagged PRMT1 (Rattus norvegicus, UniProt Q63009); experiment: Fluorescence-based in vitro PRMT assay (F-PRMT assay), PRMT1; settings: for Experimental result (PRMT1): vs solvent control = 100%
T1 construct: Full-length FLAG-tagged PRMT protein; made in house; host or cells: Sf9 insect cells (baculovirus)

FLAG-tagged PRMT3 = biological target: T2, FLAG-tagged PRMT3 (Homo sapiens, UniProt O60678); experiment: Fluorescence-based in vitro PRMT assay (F-PRMT assay), PRMT3; settings: for Experimental result (PRMT3): Table 1, 100 μM compound, 2 μM PRMT, vs solvent control = 100%, n = 3, racemates used
T2 construct: The complete ORFs of human PRMT3 and PRMT6 were inserted; made in house; host or cells: Sf9 insect cells (baculovirus)
Excerpt: (§1) To evaluate the effects of the selected candidate molecules on the catalytic activity of type I enzymes, we employed a quantitative fluorescence-based in vitro PRMT activity (F-PRMT) assay using recombinant FLAG-tagged PRMT proteins expressed and affinity-purified from baculovirus-infected Sf9 cells (SI Figure S1, SI Figure S2A).
(§2) Human cell lines (PaTu8988T, PANC-1) were obtained from ATCC (American Type Culture Collection) and cultured in DMEM supplemented with 10% fetal calf serum (FCS, Gibco/BRL), 1% penicillin/streptomycin at 37 °C and 5% CO2. […] For PRMT1 inhibition, cells were treated with type I PRMT inhibitor MS023 hydrochloride (Biomol). For induction of genotoxic stress, cells were treated with gemcitabine (LC Laboratories). […] The following plasmids were used: pFASTBAC-FLAG-rat PRMT1, pFASTBAC-FLAG-mouse PRMT4, and pGEX-GAR. The complete ORFs of human PRMT3 and PRMT6 were inserted into the pFASTBAC HT-3xFLAG B vector via BamHI/HindIII and BamHI/XhoI sites, respectively.
(§3) For PRMT protein expression in insect cells, recombinant baculovirus (bacmid) was generated using the Bac-to-Bac baculovirus system (Invitrogen). Sf9 cells were transfected with bacmid DNA using X-tremeGENE HP DNA transfection reagent (Sigma-Aldrich) according to the manufacturer's instructions. After 3–5 days, supernatants were collected, filtered, and used to infect Sf9 cells to amplify the virus. After 2 rounds of virus amplification and estimation of the final P3 virus titer, the P3 virus (2–5 μL/10^6 cells) was applied for large-scale infection of 200 × 10^6 Sf9 cells in suspension culture at a density of 1 × 10^6 cells/mL. Cells were harvested 5–6 days post-infection by centrifugation at 500 g for 5 min at room temperature. Protein purification from baculovirus-infected Sf9 cells was performed as previously described. , Cells were lysed in BC buffer (20 mM HEPES pH 7.9, 250 mM NaCl, 10% (v/v) glycerin, 0.4 mM EDTA, 1 mM DTT) containing a protease inhibitor cocktail (Roche) by 3 freeze-thaw cycles. After centrifugation at 11,000 rpm (Sorval SS34 rotor) and 4 °C for 1 h, the supernatant (whole cell protein extract) was incubated with anti-FLAG M2 Affinity Gel (Cytiva) at 4 °C and under agitation for 4 h. Subsequently, beads were washed in BC buffer containing various NaCl concentrations (once in BC with 1 M NaCl, twice in BC with 500 mM NaCl, twice in BC with 250 mM NaCl and twice in BC with 100 mM NaCl). FLAG-tagged proteins were either maintained bead-bound as a 50% (v/v) slurry in BC buffer with 100 mM NaCl and stored at −80 °C or were eluted in the appropriate elution buffer (depending on the subsequent assay) containing 0.25 mg/mL 3xFLAG peptides (Sigma-Aldrich) at 4 °C for 30–45 min. To remove the FLAG-peptides from the eluate, dialysis was performed in elution buffer containing 10% (v/v) glycerol at 4 °C for 4–6 h using Slide-A-Lyzer Dialysis Devices (Thermo Fisher Scientific) according to the manufacturer’s recommendations.
(§4) In the first step, the fluorogenic substrate Nα-Benzoyl-L-arginine-7-amido-4-methylcoumarin (Bz-Arg-AMC, Sigma-Aldrich) undergoes methylation by PRMTs upon the addition of the cofactor SAM. In the second reaction step, trypsin cleaves the nonmethylated substrate, leading to the generation of the 7-amino-4-methylcoumarin product, which can be quantified by subsequent fluorescence measurement (excitation: 355 nm, emission: 460 nm). The first reaction was conducted with bead-bound PRMTs at a total volume of 100 μL. Each condition was performed as a technical triplicate to determine the mean and the standard deviation. […] For the negative controls, SAM was substituted with assay buffer. The incubation was continued at 37 °C and under agitation (1,000 rpm) for a duration of 2 h.

FLAG-tagged PRMT4 = biological target: T3, FLAG-tagged PRMT4 (Mus musculus, UniProt Q9WVG6); experiment: Fluorescence-based in vitro PRMT assay (F-PRMT assay), PRMT4; settings: for Experimental result (PRMT4): vs solvent control = 100%
T3 construct: Full-length FLAG-tagged PRMT protein; made in house; host or cells: Sf9 insect cells (baculovirus)
T3 sequence (Q9WVG6 1-608): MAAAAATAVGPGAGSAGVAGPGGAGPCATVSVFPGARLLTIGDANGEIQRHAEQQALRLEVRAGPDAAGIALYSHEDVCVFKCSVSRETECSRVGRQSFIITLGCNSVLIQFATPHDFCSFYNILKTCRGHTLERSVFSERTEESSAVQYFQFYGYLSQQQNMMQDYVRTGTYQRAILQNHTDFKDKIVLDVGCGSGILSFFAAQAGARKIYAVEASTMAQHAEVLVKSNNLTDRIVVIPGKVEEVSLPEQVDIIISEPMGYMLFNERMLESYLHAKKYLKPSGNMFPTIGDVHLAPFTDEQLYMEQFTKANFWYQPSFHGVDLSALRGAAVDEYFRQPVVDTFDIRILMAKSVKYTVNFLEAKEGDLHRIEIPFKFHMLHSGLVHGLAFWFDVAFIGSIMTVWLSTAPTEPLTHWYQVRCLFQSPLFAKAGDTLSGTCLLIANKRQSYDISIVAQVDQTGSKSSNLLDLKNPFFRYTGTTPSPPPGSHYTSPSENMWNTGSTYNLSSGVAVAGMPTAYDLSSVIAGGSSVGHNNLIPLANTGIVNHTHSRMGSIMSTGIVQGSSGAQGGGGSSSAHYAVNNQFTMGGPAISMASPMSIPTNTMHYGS
Excerpt: as §1, §2, §3, §4

FLAG-tagged PRMT6 = biological target: T4, FLAG-tagged PRMT6 (Homo sapiens, UniProt Q96LA8); experiment: Fluorescence-based in vitro PRMT assay (F-PRMT assay), PRMT6; settings: vs solvent control = 100%
T4 construct: The complete ORFs of human PRMT3 and PRMT6 were inserted; made in house; host or cells: Sf9 insect cells (baculovirus)
Excerpt: as §1, §2, §3, §4

[1] = Table 1, 100 μM compound, 2 μM PRMT, n = 3, racemates used
[2] = Table 1, 100 μM compound, mean % difference of activity vs solvent control (100%), - inhibition, + activation, n = 3
[3] = Table S3, 100 µM compound, mean % difference vs solvent control (100%), n≥3
[4] = Table S2, 100 µM compound, n=3, racemates used

T1 sequence (Q63009 whole entry): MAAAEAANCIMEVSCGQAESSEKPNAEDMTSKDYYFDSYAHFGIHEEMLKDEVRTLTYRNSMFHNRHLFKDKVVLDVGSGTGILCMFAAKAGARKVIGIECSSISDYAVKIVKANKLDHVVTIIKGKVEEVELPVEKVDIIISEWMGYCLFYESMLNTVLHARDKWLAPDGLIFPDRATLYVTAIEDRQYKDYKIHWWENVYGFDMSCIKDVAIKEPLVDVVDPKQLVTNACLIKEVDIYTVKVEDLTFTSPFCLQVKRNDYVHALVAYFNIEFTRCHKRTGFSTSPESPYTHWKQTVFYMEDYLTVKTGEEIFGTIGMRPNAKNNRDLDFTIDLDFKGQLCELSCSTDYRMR
T2 sequence (O60678 whole entry): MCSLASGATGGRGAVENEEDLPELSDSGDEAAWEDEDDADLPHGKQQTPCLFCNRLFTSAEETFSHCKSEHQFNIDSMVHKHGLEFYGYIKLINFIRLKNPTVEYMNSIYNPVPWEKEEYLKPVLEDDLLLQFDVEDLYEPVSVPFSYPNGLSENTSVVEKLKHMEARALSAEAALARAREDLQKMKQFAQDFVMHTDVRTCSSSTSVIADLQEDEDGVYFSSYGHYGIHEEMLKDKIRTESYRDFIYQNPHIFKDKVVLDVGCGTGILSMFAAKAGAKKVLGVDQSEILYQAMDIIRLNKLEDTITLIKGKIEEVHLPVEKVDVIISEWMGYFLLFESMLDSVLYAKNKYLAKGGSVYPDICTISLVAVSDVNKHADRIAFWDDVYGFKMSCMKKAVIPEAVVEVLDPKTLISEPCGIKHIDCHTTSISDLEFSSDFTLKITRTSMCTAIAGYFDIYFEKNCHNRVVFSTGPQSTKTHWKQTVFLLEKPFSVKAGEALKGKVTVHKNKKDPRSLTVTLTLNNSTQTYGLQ
T4 sequence (Q96LA8 whole entry): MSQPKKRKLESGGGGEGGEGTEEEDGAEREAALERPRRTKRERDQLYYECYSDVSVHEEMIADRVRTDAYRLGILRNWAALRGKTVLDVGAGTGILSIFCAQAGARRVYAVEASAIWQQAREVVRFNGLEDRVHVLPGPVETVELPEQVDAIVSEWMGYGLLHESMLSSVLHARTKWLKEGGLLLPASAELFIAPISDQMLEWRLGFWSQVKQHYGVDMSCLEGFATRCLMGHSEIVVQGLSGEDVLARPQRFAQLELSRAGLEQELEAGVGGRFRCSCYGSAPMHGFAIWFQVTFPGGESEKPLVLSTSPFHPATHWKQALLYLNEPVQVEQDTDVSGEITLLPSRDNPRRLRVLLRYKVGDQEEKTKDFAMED

CNCCCNCCc1ccccc1 [Compound K001JS006]
Experimental result (PRMT1) (FLAG-tagged PRMT1; [1]): PRMT1 n.e. (Compounds, which did not significantly affect the catalytic activity (less than ±6% change or not significant p-value), are marked with [drawing 8] (no effect)) | Experimental result (PRMT3) (FLAG-tagged PRMT3): PRMT3 n.e. (Compounds, which did not significantly affect the catalytic activity (less than ±6% change or not significant p-value), are marked with [drawing 8] (no effect)) | Experimental result (PRMT4) (FLAG-tagged PRMT4; [1]): PRMT4 i | Efficacy ±Δ% (PRMT4) (FLAG-tagged PRMT4; [2]): -10% | Experimental result (PRMT6) (FLAG-tagged PRMT6; [1]): PRMT6 i

CNC[C@H](O)COc1ccc([N+](=O)[O-])cc1Cl (racemic) [Compound K001JS007]
Experimental result (PRMT1) (FLAG-tagged PRMT1; [1]): PRMT1 i | Efficacy ±Δ% (PRMT1) (FLAG-tagged PRMT1; [2]): -30% | Experimental result (PRMT3) (FLAG-tagged PRMT3): PRMT3 n.e. (Compounds, which did not significantly affect the catalytic activity (less than ±6% change or not significant p-value), are marked with [drawing 8] (no effect)) | Experimental result (PRMT4) (FLAG-tagged PRMT4; [1]): PRMT4 i | Experimental result (PRMT6) (FLAG-tagged PRMT6; [1]): PRMT6 i

CN(C)Cc1cccc(N/C=C2\C(=O)NC(=O)c3ccccc32)c1 [TR-010]
activation at 100 µM (FLAG-tagged PRMT1; 100 μM compound, increase over solvent-treated activity, read-out: enhancement (increase) of PRMT1 enzymatic activity): ≥ 60% | Efficacy ±∆% (PRMT1) (FLAG-tagged PRMT1; [3]): +75% | Efficacy ±∆% (PRMT3) (FLAG-tagged PRMT3; [3]): +45% | Experimental result (PRMT4) (FLAG-tagged PRMT4; Table S3, 100 µM compound, n≥3): n.e. (did not significantly affect the catalytic activity (less than ±6% change or not significant p-value), are marked with n.e. (no effect)) | Experimental result (PRMT6) (FLAG-tagged PRMT6; Table S3, 100 µM compound, n≥3): n.e. (did not significantly affect the catalytic activity (less than ±6% change or not significant p-value), are marked with n.e. (no effect))

CCN(CC)Cc1ccc(NS(=O)(=O)c2cc(C)cs2)cc1 [Compound K400JK016]
Experimental result (PRMT4) (FLAG-tagged PRMT4; [4]): n.e. (did not significantly affect the catalytic activity of the intended PRMT (less than ±6% change or not significant p-value), are marked with n.e. (no effect))

OCCNC[C@@H](O)COc1ccccc1 (racemic) [Compound K001JS001]
Experimental result (PRMT4) (FLAG-tagged PRMT4; [4]): n.e. (did not significantly affect the catalytic activity of the intended PRMT (less than ±6% change or not significant p-value), are marked with n.e. (no effect))

Cn1ccnc1Cn1c(CCCN)nc2c1CCCC2 [Compound K001FT006]
Experimental result (PRMT4) (FLAG-tagged PRMT4; [4]): n.e. (did not significantly affect the catalytic activity of the intended PRMT (less than ±6% change or not significant p-value), are marked with n.e. (no effect))

C#CCNCC(=O)Nc1ccc([C@@H]2C[C@H]2N)cc1 (racemic) [Compound K400JK009]
Experimental result (PRMT4) (FLAG-tagged PRMT4; [4]): n.e. (did not significantly affect the catalytic activity of the intended PRMT (less than ±6% change or not significant p-value), are marked with n.e. (no effect))

O[C@H](CNCc1ccco1)COc1ccc2ccccc2c1 (racemic) [Compound K001JS002]
Experimental result (PRMT4) (FLAG-tagged PRMT4; [4]): n.e. (did not significantly affect the catalytic activity of the intended PRMT (less than ±6% change or not significant p-value), are marked with n.e. (no effect))

CO/C=C1/C(=O)NC(=O)c2ccccc21 [TR-02, (E/Z)-4-(Methoxymethylene)isoquinoline-1,3(2H,4H)-dione]
effect on PRMT1 activity (in words) (FLAG-tagged PRMT1; 100 μM compound): no significant effect | Experimental result (PRMT1) (FLAG-tagged PRMT1; Table S3, 100 µM compound, n≥3): n.e. (did not significantly affect the catalytic activity (less than ±6% change or not significant p-value), are marked with n.e. (no effect)) | Experimental result (PRMT4) (FLAG-tagged PRMT4; Table S3, 100 µM compound, n≥3): n.e. (did not significantly affect the catalytic activity (less than ±6% change or not significant p-value), are marked with n.e. (no effect))

Cc1ccc([N+](=O)[O-])c(OCCC(=O)Nc2ccc(O)cc2C)c1 [Compound K001JS012]
Experimental result (PRMT4) (FLAG-tagged PRMT4; [4]): n.e. (did not significantly affect the catalytic activity of the intended PRMT (less than ±6% change or not significant p-value), are marked with n.e. (no effect))

CNC(=O)COc1ccc(NC(=O)[C@@H]2NC[C@@H]3C[C@@H]32)cc1 (racemic) [Compound K400JK006]
Experimental result (PRMT4) (FLAG-tagged PRMT4; [4]): n.e. (did not significantly affect the catalytic activity of the intended PRMT (less than ±6% change or not significant p-value), are marked with n.e. (no effect))

COc1cccc(CNC(=O)NCc2nc3ccccc3s2)c1 [Compound K001FT008]
Experimental result (PRMT4) (FLAG-tagged PRMT4; [4]): n.e. (did not significantly affect the catalytic activity of the intended PRMT (less than ±6% change or not significant p-value), are marked with n.e. (no effect))

Cc1nc([C@@H](O)Cc2ccccc2)n(CCc2cnc[nH]2)n1 (racemic) [Compound K001FT007]
Experimental result (PRMT4) (FLAG-tagged PRMT4; [4]): n.e. (did not significantly affect the catalytic activity of the intended PRMT (less than ±6% change or not significant p-value), are marked with n.e. (no effect))

O=c1ccc([N+](=O)[O-])cn1Cc1nccn1Cc1ccccc1 [Compound K001JS009]
Experimental result (PRMT4) (FLAG-tagged PRMT4; [4]): n.e. (did not significantly affect the catalytic activity of the intended PRMT (less than ±6% change or not significant p-value), are marked with n.e. (no effect))

N/C(Cn1ccn2nc(-c3cccs3)cc2c1=O)=N\O [Compound K400JK015]
Experimental result (PRMT4) (FLAG-tagged PRMT4; [4]): n.e. (did not significantly affect the catalytic activity of the intended PRMT (less than ±6% change or not significant p-value), are marked with n.e. (no effect))

N=C(N)NCCCc1ccccc1Br [Compound K001FT004]
Experimental result (PRMT4) (FLAG-tagged PRMT4; [4]): n.e. (did not significantly affect the catalytic activity of the intended PRMT (less than ±6% change or not significant p-value), are marked with n.e. (no effect))

CNC(=O)Cn1cc(NC(=O)[C@@H]2CC[C@@H]2N)cn1 (racemic) [Compound K400JK012]
Experimental result (PRMT4) (FLAG-tagged PRMT4; [4]): n.e. (did not significantly affect the catalytic activity of the intended PRMT (less than ±6% change or not significant p-value), are marked with n.e. (no effect))
